According to the SangsterLogP compilation:

Experiment: method code SF-AS, from PMID: 1438511

Row | logP | logD (pH 8.0) | SMILES
1 | 2.87 |  | c1ccc(OCc2cccc(CN3CCCCCC3)c2)cc1
2 |  | 2.75 | c1ccc(OCc2cccc(CN3CCCOC3)c2)cc1
